# Publication PMC10686834, “Targeting myeloid chemotaxis to reverse prostate cancer therapy resistance” (Nature, 2023)
# Read-outs that look alike come from different tables or passages of the source.
# Assays:
# [1] = parameters: method as in AZD5069 Investigator Brochure (IB); conditions: ref AZD5069 Investigator Brochure (IB), cited from earlier work
# [2] = parameters: method as in AZD5069 Investigator Brochure (IB); conditions: in vitro and in vivo studies; ref AZD5069 Investigator Brochure (IB); cited from earlier work
# [3] = tested on: CYP3A4; parameters: method as in AZD5069 Investigator Brochure (IB); conditions: at concentrations of up to 100 μmol/L; ref AZD5069 Investigator Brochure (IB); cited from earlier work
# [4] = tested on: CYP2E1; parameters: method as in AZD5069 Investigator Brochure (IB); conditions: at concentrations of up to 100 μmol/L; ref AZD5069 Investigator Brochure (IB); cited from earlier work
# [5] = tested on: rat; conditions: 1-month and 6-month rat studies; ref AZD5069 Investigator Brochure (IB); cited from earlier work
# [6] = tested on: CACO-2 cells; parameters: method as in AZD5069 Investigator Brochure (IB); conditions: at 0.85 μmol/L, ref AZD5069 Investigator Brochure (IB); cited from earlier work
# [7] = parameters: method as in AZD5069 Investigator Brochure (IB); conditions: ref AZD5069 Investigator Brochure (IB); cited from earlier work
# [8] = tested on: CYP3A4; parameters: method as in AZD5069 Investigator Brochure (IB); conditions: co-administration with ketoconazole; ref AZD5069 Investigator Brochure (IB); cited from earlier work
# [9] = tested on: circulating CXCL1, CXCL2, CXCL5, CXCL6, CXCL7 and CXCL8; assay: Circulating cytokine analyses (Luminex, ELISA) in patient serum; assay type: in vivo, human; conditions: serial serum samples
# Procedure: Serum samples were collected at baseline, on day 1 of every cycle, and on cycle 1 day 15. CXCL2, CXCL5, CXCL6, CXCL7 and CXCL8 were measured in patient serum (diluted 1:2 except for CXCL7, which was diluted 1:200), then analysed using R&D Systems Luminex discovery assays using the Luminex 200 and interpolated using a five-parameter logistic curve fit. CXCL1 was measured in neat patient serum using the R&D Systems human GROα Quantikine ELISA using the Perkin Elmer Envision 2103 Multilabel plate reader and interpolated using linear regression. The Luminex and ELISA assays were validated to good clinical practice compliance by The ICR and included quality control samples of serum, unspiked or spiked with recombinant protein standard, from healthy volunteer serum in every analytical run. A list of the ELISA reagents is provided in Supplementary Table 9.
# [10] = tested on: blood neutrophils; assay: Peripheral blood neutrophil counts and NLR on treatment; assay type: in vivo, human
# Procedure: Secondary endpoints were:(i) the rate of objective response, with objective response defined as confirmed soft tissue objective response by Response Evaluation Criteria in Solid Tumors v.1.1 in those with measurable disease, and/or PSA decline ≥50% confirmed 4 weeks or later, and/or CTC count conversion from ≥5 per 7.5 ml of blood at baseline to <5 per 7.5 ml of blood at nadir; (ii) pharmacokinetic parameters, including maximum concentration, area under the concentration–time curve; and (iii) pharmacodynamic changes including identifying patients whose blood NLR, neutrophil, and intratumour myeloid cell density decrease. Exploratory endpoints included blood cytokine levels and evaluation of tumour molecular profile on response.
# The association between myeloid cell densities and NLR was evaluated in two cohorts (Supplementary Table 1). Cohort 1 consisted of 48 mCRPC biopsies from patients treated at ICR/RMH, Oncology Institute of Southern Switzerland and Belfast City Hospital between 2012 and 2021. All patients provided informed consent, and enrolled onto institutional protocols approved by the local RECs (REC reference: 04/Q0801/60, 11/LO/2019). The validation cohort consisted of 57 mCRPC biopsies from patients treated at ICR/RMH between 2012 and 2016 under institutional protocols approved by the local REC (REC references: 04/Q0801/60, 2017-01002 CE TI 3237). […]
# [11] = tested on: CYP2B6; parameters: method as in AZD5069 Investigator Brochure (IB); conditions: at concentrations of up to 100 μmol/L; ref AZD5069 Investigator Brochure (IB); cited from earlier work
# [12] = tested on: CYP1A2; parameters: method as in AZD5069 Investigator Brochure (IB); conditions: at concentrations of up to 100 μmol/L; ref AZD5069 Investigator Brochure (IB); cited from earlier work
# [13] = tested on: patients with persistent uncontrolled asthma; parameters: method as in AZD5069 Investigator Brochure (IB); conditions: asthma study NCT01704495, 161 patients receiving 45 mg BD, 6-month safety analysis set; ref AZD5069 Investigator Brochure (IB); cited from earlier work
# [14] = tested on: CYP2C8; parameters: method as in AZD5069 Investigator Brochure (IB); conditions: ref AZD5069 Investigator Brochure (IB); cited from earlier work
# [15] = tested on: patients with advanced solid tumours or metastatic pancreatic ductal adenocarcinoma; conditions: ref AZD5069 IB (07 July 2019), cited from earlier work
# [16] = tested on: monkey; conditions: in vivo; cited from earlier work
# [17] = 109 patients in two oncology studies
smiles,measurement,setting,value
C[C@@H](Oc1cc(NS(=O)(=O)N2CCC2)nc(SCc2cccc(F)c2F)n1)[C@@H](O)CO [AZD5069],tmax,[1]; fasting conditions,~ 2 hours
same,initial half-life,[1]; plasma,4 h
same,terminal half-life,[1]; plasma,11 h
same,apparent volume of distribution,[1],~ 53 L
same,food effect,[1],reduces the peak concentration but total exposure (AUC) is unchanged
same,fraction of the drug renally excreted,[1],Less than 10%
same,total plasma clearance,[1],~ 8 L/h
same,systemic exposure versus dose,[1]; single and repeated BD dosing,proportional to the dose
same,genotoxicity,[2],not genotoxic
same,inhibition of CYP3A4,[3],not an inhibitor
same,inhibition of CYP2E1,[4],not an inhibitor
same,dose with enlarged mandibular lymph nodes in both sexes,[5],≥ 40 mg/kg BD
same,efflux ratio,[6],57
same,phototoxic potential,[7],low risk for phototoxic potential
same,increased exposure (AUC),[8],2.1 fold
same,increased exposure (Cmax),[8],1.6 fold
same,"levels of circulating CXCL1, CXCL2 and CXCL8 after treatment",[9],increased in a dose-dependent manner
same,"levels of circulating CXCL5, CXCL6 and CXCL7 after treatment",[9],did not consistently increase
same,effect on blood neutrophil counts and NLRs,[10]; 40 mg BD to 320 mg BD,decreased blood neutrophil counts and NLRs in a dose-dependent manner
same,on-target reduction in blood neutrophil counts,[10]; AZD5069 >40 mg BD,at least 30%
same,inhibition of CYP2B6,[11],not an inhibitor
same,inhibition of CYP1A2,[12],not an inhibitor
same,patients who discontinued the drug due to neutrophil counts 1x10^9/L,[13],4
same,IC50,[14],~100 µM
same,causally-related AEs that led to treatment discontinuation,[15]; 109 patients in two oncology studies (four patients),3.7%
same,causally-related AEs of CTCAE ≥Grade 3: fatigue,[15]; [17],4.6%
same,causally-related AEs of CTCAE ≥Grade 3: neutropenia,[15]; [17],11.0%
same,causally-related AEs of CTCAE ≥Grade 3: neutrophil count decreased,[15]; [17],4.6%
same,causally-related AEs: decreased appetite,[15]; [17],20.2%
same,causally-related AEs: diarrhoea,[15]; [17],10.1%
same,causally-related AEs: fatigue,[15]; [17],22.9%
same,causally-related AEs: nausea,[15]; [17],11.9%
same,causally-related AEs: neutropenia,[15]; [17],15.6%
same,causally-related AEs: neutrophil count decreased,[15]; [17],11.0%
same,causally-related SAEs,[15]; [17],9.2%
same,fatal AE considered treatment-related,[15]; [17],no fatal AE
same,most common AEs: decreased appetite,[15]; [17],35.8%
same,most common AEs: fatigue,[15]; [17],38.5%
same,most common AEs: nausea,[15]; [17],28.4%
same,patients with adverse events considered related to study treatment,[15]; [17],73.4%
same,neutrophil count decreased,"[15]; Study NCT02499328, 40 mg BD dose (4/64)",6.3%
same,neutrophil count decreased,"[15]; Study NCT02499328, 80 mg BD dose (6/25)",24%
same,tolerated single doses (maximum feasible dose),[16],≤ 350 mg/kg BD
